Source: PMC8722715 (Frontiers in Cell and Developmental Biology, 2021)

What was measured:
hNaV1.6 channel = target: T1, hNaV1.6 channel (Homo sapiens, UniProt Q9UQD0); test: Automated patch-clamp block of hNaV1.6 peak Na+ current in HEK-293 cells; format: cell-based; details: for hNaV1.6 IC50 versus WT: ratio of analogue mean IC50 to HwTx-IV WT mean IC50 on hNaV1.6; for IC50: HEK-293 cells stably expressing hNaV1.6, SyncroPatch 384 PE whole-cell, holding -100 mV, 0 mV test pulse 50 ms every 5 s, room temperature 18-22°C, 0.3% BSA, steady state or end of 15-min application, mean, S.E.M. and n cells
T1 construct: expressed in transfected cells
Experimental: (§1) CHO cells stably expressing the hNaV1.7 channel subtype were cultured in Dulbecco’s Modified Eagle’s Medium F-12 (DMEM/F12) supplemented with 10% fetal bovine serum, 2 mM glutamine, 200 μg/ml hygromycine B, 10 U/ml penicillin and 10 μg/ml streptomycin (Gibco, Grand Island, NY). HEK-293 cells stably expressing the hNaV1.6 channel subtype were cultured in Dulbecco’s Modified Eagle’s Medium (DMEM) supplemented with 10% fetal calf serum, 1 mM pyruvic acid, 4.5 g/L glucose, 2 mM glutamine, 800 μg/ml G418, 10 U/ml penicillin and 10 μg/ml streptomycin (Gibco, Grand Island, NY). All cell lines were incubated at 37°C in a 5% CO2 atmosphere. For electrophysiological recordings, cells were detached with trypsin, and floating single cells were diluted (∼300,000 cells/ml) in an extracellular solution containing (in mM): 140 NaCl, 4 KCl, 2 CaCl2, 1 MgCl2, 5 glucose and 10 HEPES (pH 7.4, osmolarity 298 mOsm), that was used throughout the experiments.
(§2) HwTx-IV analogues were investigated on CHO cells expressing hNav1.7 channel and HEK-293 cells expressing hNaV1.6 channel using the automated patch-clamp system from Nanion (SyncroPatch 384 PE; München, Germany). Chips with single-hole and high-resistance (∼6–7 MΩ) were used for both cell lines. Voltage pulses and whole-cell recordings were achieved using the PatchControl384 v1.5.2 software (Nanion) and the Biomek v1.0 interface (Beckman Coulter). Prior to recordings, dissociated cells were shaken at 200 RPM in a cell hotel reservoir at 10°C. After cell catching, sealing, whole-cell formation, liquid application, recording, and data acquisition were all performed sequentially and automatically. The intracellular solution contained (in mM): 110 CsF, 10 CsCl, 10 NaCl, 1 MgCl2, 1 CaCl2, 10 EGTA and 10 HEPES (pH 7.2, osmolarity 280 mOsm), and the extracellular solution was as described above. Whole-cell experiments were done at −100 mV holding potential and at room temperature (18–22°C), while currents triggered at either −10 or 0 mV test potential were sampled at 20 kHz. Stimulation frequency was set at 0.2 Hz. Each HwTx-IV analogue was prepared at various concentrations in the extracellular solution, itself supplemented with 0.3% of bovine serum albumin (BSA), also added in the control solution. The peptides were distributed in 384-well microplates according to the number of compounds to be tested (generally four), the concentration range defined from the IC50 of wild-type HwTx-IV, and the number of cells desired for each experimental condition. Compound solutions were diluted 3 times in the patch-clamp recording well by adding 30–60 μl external solution, to reach the final reported concentration and the test volume of 90 μl. For establishing dose-response curves, the compounds were tested at a test potential of either −10 or 0 mV for 50 ms with a pulse every 5 s. Percentages of current inhibition were measured at steady-state of blockage or at the end of a 15-min application time.

hNaV1.7 channel = target: T2, hNaV1.7 channel (Homo sapiens, UniProt Q15858); test: Automated patch-clamp block of hNaV1.7 peak Na+ current in CHO cells; format: cell-based; details: for hNaV1.7/hNaV1.6 selectivity ratio: inverse ratio of the mean IC50 values on hNaV1.7 (CHO) and hNaV1.6 (HEK-293) of Table 1; for hNaV1.7 IC50 versus WT: ratio of analogue mean IC50 to HwTx-IV WT mean IC50 on hNaV1.7; for IC50: CHO cells stably expressing hNaV1.7, SyncroPatch 384 PE whole-cell, holding -100 mV, -10 mV test pulse 50 ms every 5 s, room temperature 18-22°C, 0.3% BSA, steady state or end of 15-min application, mean, S.E.M. and n cells
T2 construct: expressed in transfected cells
Experimental: as §1
as §2, with “The peptides were distributed in 384-well microplates according to the number of compounds to be tested (generally four), the concentration range defined from the IC50 of wild-type HwTx-IV, and the number of cells desired for each experimental condition.” left out

T2 sequence (Q15858 whole entry): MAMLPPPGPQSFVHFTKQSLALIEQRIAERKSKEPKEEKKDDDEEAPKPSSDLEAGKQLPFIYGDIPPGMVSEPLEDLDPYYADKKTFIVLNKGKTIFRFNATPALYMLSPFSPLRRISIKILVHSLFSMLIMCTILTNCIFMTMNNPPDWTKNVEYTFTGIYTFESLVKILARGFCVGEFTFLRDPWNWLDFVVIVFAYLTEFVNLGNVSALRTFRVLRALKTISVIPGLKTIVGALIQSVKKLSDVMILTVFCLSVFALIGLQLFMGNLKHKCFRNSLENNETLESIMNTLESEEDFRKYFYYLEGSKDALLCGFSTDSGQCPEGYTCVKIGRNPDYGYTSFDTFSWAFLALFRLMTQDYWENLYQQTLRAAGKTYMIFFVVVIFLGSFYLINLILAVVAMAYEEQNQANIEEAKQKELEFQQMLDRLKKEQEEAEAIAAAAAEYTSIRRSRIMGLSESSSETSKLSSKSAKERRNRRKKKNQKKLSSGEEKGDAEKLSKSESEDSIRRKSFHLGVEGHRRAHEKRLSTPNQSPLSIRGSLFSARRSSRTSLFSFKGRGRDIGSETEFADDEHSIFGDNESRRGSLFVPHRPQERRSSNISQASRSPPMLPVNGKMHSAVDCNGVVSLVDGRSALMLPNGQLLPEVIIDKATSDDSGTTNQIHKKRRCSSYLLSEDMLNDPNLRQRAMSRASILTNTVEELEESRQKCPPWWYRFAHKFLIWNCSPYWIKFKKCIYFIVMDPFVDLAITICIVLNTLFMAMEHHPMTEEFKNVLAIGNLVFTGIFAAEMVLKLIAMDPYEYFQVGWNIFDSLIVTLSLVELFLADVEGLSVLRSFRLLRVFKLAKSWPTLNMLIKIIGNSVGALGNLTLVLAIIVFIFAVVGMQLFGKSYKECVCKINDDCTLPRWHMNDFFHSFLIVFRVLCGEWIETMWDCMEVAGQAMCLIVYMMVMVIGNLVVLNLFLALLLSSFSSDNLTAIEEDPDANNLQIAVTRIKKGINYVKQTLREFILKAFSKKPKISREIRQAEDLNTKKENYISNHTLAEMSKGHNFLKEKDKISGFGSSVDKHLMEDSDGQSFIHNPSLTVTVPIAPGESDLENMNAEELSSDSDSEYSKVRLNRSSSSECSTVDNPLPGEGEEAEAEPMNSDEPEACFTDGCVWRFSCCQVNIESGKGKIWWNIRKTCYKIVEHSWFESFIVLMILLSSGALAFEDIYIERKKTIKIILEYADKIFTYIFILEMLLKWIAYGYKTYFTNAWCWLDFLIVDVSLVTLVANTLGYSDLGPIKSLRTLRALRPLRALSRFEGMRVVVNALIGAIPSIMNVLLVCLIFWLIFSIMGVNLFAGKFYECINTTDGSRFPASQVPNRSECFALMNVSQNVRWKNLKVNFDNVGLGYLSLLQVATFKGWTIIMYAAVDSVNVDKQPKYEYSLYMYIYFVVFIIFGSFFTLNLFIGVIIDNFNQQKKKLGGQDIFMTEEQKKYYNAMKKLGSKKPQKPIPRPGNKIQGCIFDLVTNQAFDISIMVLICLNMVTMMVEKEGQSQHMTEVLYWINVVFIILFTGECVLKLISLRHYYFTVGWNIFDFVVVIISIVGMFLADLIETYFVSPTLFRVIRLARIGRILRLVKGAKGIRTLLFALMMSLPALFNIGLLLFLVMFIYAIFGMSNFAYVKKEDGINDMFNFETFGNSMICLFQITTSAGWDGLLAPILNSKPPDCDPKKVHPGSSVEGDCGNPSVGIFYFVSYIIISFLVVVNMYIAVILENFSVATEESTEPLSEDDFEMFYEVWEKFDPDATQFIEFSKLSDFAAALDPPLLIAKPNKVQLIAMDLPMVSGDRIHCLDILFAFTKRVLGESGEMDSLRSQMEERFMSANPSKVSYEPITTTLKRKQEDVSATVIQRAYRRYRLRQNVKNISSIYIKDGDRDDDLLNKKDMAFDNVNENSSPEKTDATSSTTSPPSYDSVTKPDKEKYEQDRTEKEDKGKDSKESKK
T1 sequence (Q9UQD0 whole entry): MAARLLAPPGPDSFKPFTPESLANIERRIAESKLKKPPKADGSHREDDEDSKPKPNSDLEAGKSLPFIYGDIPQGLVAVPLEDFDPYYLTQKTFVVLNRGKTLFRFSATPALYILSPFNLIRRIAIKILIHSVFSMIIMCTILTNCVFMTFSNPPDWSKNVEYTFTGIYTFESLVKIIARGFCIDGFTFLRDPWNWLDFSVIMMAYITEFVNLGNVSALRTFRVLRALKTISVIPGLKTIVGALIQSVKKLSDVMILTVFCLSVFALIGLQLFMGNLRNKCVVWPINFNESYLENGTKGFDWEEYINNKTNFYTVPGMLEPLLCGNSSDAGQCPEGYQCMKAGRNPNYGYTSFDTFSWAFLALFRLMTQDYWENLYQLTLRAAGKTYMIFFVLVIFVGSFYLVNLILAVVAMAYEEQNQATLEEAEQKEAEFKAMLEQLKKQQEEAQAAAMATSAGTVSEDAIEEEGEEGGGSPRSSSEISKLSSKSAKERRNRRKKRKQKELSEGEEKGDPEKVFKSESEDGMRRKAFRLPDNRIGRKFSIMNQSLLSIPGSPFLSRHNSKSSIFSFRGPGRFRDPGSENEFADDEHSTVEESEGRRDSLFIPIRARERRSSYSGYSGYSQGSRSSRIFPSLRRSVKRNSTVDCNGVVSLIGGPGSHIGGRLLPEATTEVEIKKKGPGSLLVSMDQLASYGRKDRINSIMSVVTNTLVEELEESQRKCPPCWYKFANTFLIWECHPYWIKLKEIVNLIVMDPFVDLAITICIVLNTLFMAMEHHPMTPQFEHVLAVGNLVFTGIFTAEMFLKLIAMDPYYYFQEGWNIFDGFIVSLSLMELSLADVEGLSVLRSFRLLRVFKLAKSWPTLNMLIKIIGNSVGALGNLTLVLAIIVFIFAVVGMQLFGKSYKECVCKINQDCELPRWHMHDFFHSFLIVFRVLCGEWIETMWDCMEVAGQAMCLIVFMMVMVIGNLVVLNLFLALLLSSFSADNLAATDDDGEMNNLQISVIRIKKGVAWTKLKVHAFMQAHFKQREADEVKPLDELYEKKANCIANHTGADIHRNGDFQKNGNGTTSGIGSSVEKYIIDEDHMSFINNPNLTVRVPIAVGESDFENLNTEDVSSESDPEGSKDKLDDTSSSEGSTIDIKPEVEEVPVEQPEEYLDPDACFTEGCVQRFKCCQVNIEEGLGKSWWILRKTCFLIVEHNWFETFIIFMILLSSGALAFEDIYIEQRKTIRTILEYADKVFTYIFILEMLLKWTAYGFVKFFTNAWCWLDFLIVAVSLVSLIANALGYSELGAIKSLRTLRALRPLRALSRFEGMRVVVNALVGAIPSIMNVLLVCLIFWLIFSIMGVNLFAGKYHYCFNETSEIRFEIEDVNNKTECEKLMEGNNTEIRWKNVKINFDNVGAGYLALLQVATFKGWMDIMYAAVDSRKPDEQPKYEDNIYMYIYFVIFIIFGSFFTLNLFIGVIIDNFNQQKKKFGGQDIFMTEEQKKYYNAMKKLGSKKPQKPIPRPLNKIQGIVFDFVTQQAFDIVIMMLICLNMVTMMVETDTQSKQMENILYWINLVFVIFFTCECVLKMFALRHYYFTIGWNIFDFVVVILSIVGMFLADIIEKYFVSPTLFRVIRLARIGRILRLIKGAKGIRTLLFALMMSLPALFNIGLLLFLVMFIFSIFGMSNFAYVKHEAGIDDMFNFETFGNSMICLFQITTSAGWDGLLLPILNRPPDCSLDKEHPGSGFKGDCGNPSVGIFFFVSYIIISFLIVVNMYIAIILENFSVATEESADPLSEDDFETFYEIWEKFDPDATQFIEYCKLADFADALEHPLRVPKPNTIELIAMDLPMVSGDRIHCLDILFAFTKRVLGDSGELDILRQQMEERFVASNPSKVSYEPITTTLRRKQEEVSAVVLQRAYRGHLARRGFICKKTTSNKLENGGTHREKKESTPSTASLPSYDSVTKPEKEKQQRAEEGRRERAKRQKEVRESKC

Row | SMILES | hNaV1.6 IC50 versus WT (hNaV1.6 channel) | hNaV1.6 IC50 versus WT (hNaV1.6 channel; listed as HwTx-IV E^4G) | hNaV1.6 IC50 versus WT (hNaV1.6 channel; listed as HwTx-IV E^4K) | hNaV1.6 IC50 versus WT (hNaV1.6 channel; listed as HwTx-IV E^4R) | hNaV1.7/hNaV1.6 selectivity ratio (hNaV1.7 channel; listed as E^4K) | hNaV1.7/hNaV1.6 selectivity ratio (hNaV1.7 channel; listed as HwTx-IV E^4K) | hNaV1.7 IC50 versus WT (hNaV1.7 channel) | hNaV1.7 IC50 versus WT (hNaV1.7 channel; listed as HwTx-IV E^4G) | hNaV1.7 IC50 versus WT (hNaV1.7 channel; listed as HwTx-IV E^4K) | IC50 (hNaV1.6 channel) | IC50 (hNaV1.7 channel) | hNaV1.7/hNaV1.6 selectivity ratio (hNaV1.7 channel)
1 | CC[C@H](C)[C@H](NC(=O)[C@H](CCC(N)=O)NC(=O)[C@H](Cc1ccc(O)cc1)NC(=O)[C@H](CCCCN)NC(=O)[C@@H]1CSSC[C@@H]2NC(=O)[C@H](CCC(N)=O)NC(=O)[C@H](CC(=O)O)NC(=O)[C@H](CC(N)=O)NC(=O)[C@H](CO)NC(=O)[C@@H]3CCCN3C(=O)[C@H](CC(N)=O)NC(=O)[C@@H]3CSSC[C@H](NC(=O)[C@H](C(C)C)NC(=O)[C@H](CC(C)C)NC(=O)[C@H](CCCCN)NC(=O)[C@H](CO)NC(=O)[C@H](CO)NC(=O)[C@H](CCCCN)NC(=O)[C@H](CSSC[C@H](NC(=O)CN)C(=O)N[C@@H](CC(C)C)C(=O)N[C@@H](CCC(=O)O)C(=O)N[C@@H]([C@@H](C)CC)C(=O)N[C@@H](Cc4ccccc4)C(=O)N[C@@H](CCCCN)C(=O)N[C@@H](C)C(=O)N3)NC2=O)C(=O)N[C@@H](CO)C(=O)N[C@@H](CCCNC(=N)N)C(=O)N[C@@H](CCCCN)C(=O)N[C@@H]([C@@H](C)O)C(=O)N[C@@H](CCCNC(=N)N)C(=O)N[C@@H](Cc2c[nH]c3ccccc23)C(=O)N1)C(N)=O [HwTx-IV E^1G] | 0.28 | 0.03 | 0.09 | 0.05 | less than 2 | ~1 | 0.70 | 0.16 | 1.43 | – | – | –
2 | CC[C@H](C)[C@H](NC(=O)[C@H](CCC(N)=O)NC(=O)[C@H](Cc1ccc(O)cc1)NC(=O)[C@H](CCCCN)NC(=O)[C@@H]1CSSC[C@@H]2NC(=O)[C@H](CCC(N)=O)NC(=O)[C@H](CC(=O)O)NC(=O)[C@H](CC(N)=O)NC(=O)[C@H](CO)NC(=O)[C@@H]3CCCN3C(=O)[C@H](CC(N)=O)NC(=O)[C@@H]3CSSC[C@H](NC(=O)[C@H](C(C)C)NC(=O)[C@H](CC(C)C)NC(=O)[C@H](CCCCN)NC(=O)[C@H](CO)NC(=O)[C@H](CO)NC(=O)[C@H](CCCCN)NC(=O)[C@H](CSSC[C@H](NC(=O)[C@@H](N)CCC(=O)O)C(=O)N[C@@H](CC(C)C)C(=O)N[C@@H](CCCCN)C(=O)N[C@@H]([C@@H](C)CC)C(=O)N[C@@H](Cc4ccccc4)C(=O)N[C@@H](CCCCN)C(=O)N[C@@H](C)C(=O)N3)NC2=O)C(=O)N[C@@H](CO)C(=O)N[C@@H](CCC(N)=O)C(=O)N[C@@H](CCCCN)C(=O)N[C@@H]([C@@H](C)O)C(=O)N[C@@H](CCCNC(=N)N)C(=O)N[C@@H](Cc2c[nH]c3ccccc23)C(=O)N1)C(N)=O [HwTx-IV E^4K/R ^26Q] | 0.02 | – | – | – | – | – | 0.36 | – | – | 3.4 nM | 3.6 nM | less than 2
3 | CC[C@H](C)[C@H](NC(=O)[C@H](CCC(N)=O)NC(=O)[C@H](Cc1ccc(O)cc1)NC(=O)[C@H](CCCCN)NC(=O)[C@@H]1CSSC[C@@H]2NC(=O)[C@H](CCC(N)=O)NC(=O)[C@H](CC(=O)O)NC(=O)[C@H](CC(N)=O)NC(=O)[C@H](CO)NC(=O)[C@@H]3CCCN3C(=O)[C@H](CC(N)=O)NC(=O)[C@@H]3CSSC[C@H](NC(=O)[C@H](C(C)C)NC(=O)[C@H](CC(C)C)NC(=O)[C@H](CCCCN)NC(=O)[C@H](CO)NC(=O)[C@H](CO)NC(=O)[C@H](CCCCN)NC(=O)[C@H](CSSC[C@H](NC(=O)[C@@H](N)CCC(=O)O)C(=O)N[C@@H](CC(C)C)C(=O)N[C@@H](CCC(=O)O)C(=O)N[C@@H]([C@@H](C)CC)C(=O)N[C@@H](Cc4ccccc4)C(=O)N[C@@H](CCCCN)C(=O)N[C@@H](C)C(=O)N3)NC2=O)C(=O)N[C@@H](CO)C(=O)N[C@@H](CCC(N)=O)C(=O)N[C@@H](CCCCN)C(=O)N[C@@H]([C@@H](C)O)C(=O)N[C@@H](CCCNC(=N)N)C(=O)N[C@@H](Cc2c[nH]c3ccccc23)C(=O)N1)C(N)=O [HwTx-IV R ^26Q] | >4.4 | – | – | – | – | – | 14.28 | – | – | > 1000 nM | 141 nM | –
4 | CC[C@H](C)[C@H](NC(=O)[C@H](CCC(N)=O)NC(=O)[C@H](Cc1ccc(O)cc1)NC(=O)[C@H](CCCCN)NC(=O)[C@@H]1CSSC[C@@H]2NC(=O)[C@H](CCC(N)=O)NC(=O)[C@H](CC(=O)O)NC(=O)[C@H](CC(N)=O)NC(=O)[C@H](CO)NC(=O)[C@@H]3CCCN3C(=O)[C@H](CC(N)=O)NC(=O)[C@@H]3CSSC[C@H](NC(=O)[C@H](C(C)C)NC(=O)[C@H](CC(C)C)NC(=O)[C@H](CCCCN)NC(=O)[C@H](CO)NC(=O)[C@H](CO)NC(=O)[C@H](CCCCN)NC(=O)[C@H](CSSC[C@H](NC(=O)[C@@H](N)CCC(=O)O)C(=O)N[C@@H](CC(C)C)C(=O)NCC(=O)N[C@@H]([C@@H](C)CC)C(=O)N[C@@H](Cc4ccccc4)C(=O)N[C@@H](CCCCN)C(=O)N[C@@H](C)C(=O)N3)NC2=O)C(=O)N[C@@H](CO)C(=O)N[C@@H](CCCNC(=N)N)C(=O)N[C@@H](CCCCN)C(=O)N[C@@H]([C@@H](C)O)C(=O)N[C@@H](CCCNC(=N)N)C(=O)N[C@@H](Cc2c[nH]c3ccccc23)C(=O)N1)C(=O)O [HwTx-IV E^4G/CterCOOH] | 0.24 | – | – | – | – | – | 1.51 | – | – | 55.1 nM | 14.9 nM | –
